Data reported in patent publication US6737383B1, “Herbicidal oxadiazolidines” (priority 1999, dated 2004).

Experiments:
bedstraw = experiment: Test B pre/postemergence bedstraw; type: in vivo, Galium aparine
Method in brief: (§1)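 Test chemicals in a non-phytotoxic solvent mixture with surfactant were sprayed preemergence onto planted seeds and postemergence onto plants 2 to 18 cm tall (1- to 4-leaf stage). After twelve to sixteen days in a greenhouse, injury was visually rated against untreated controls from 0 (no effect) to 10 (complete control).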

blackgrass = experiment: Test B pre/postemergence blackgrass; type: in vivo, Alopecurus myosuroides
Method in brief: as §1

surinam grass = experiment: Test B pre/postemergence surinam grass; type: in vivo, Brachiaria decumbens
Method in brief: as §1

cocklebur = experiment: Test B pre/postemergence cocklebur; type: in vivo, Xanthium strumarium
Method in brief: as §1

corn = experiment: Test B pre/postemergence corn; type: in vivo, Zea mays
Method in brief: as §1

crabgrass = experiment: Test B pre/postemergence crabgrass; type: in vivo, Digitaria sanguinalis
Method in brief: as §1

giant foxtail = experiment: Test B pre/postemergence giant foxtail; type: in vivo, Setaria faberii
Method in brief: as §1

morningglory = experiment: Test B pre/postemergence morningglory; type: in vivo, Ipomoea hederacea
Method in brief: as §1

pigweed = experiment: Test B pre/postemergence pigweed; type: in vivo, Amaranthus retroflexus
Method in brief: as §1

rape = experiment: Test B pre/postemergence rape; type: in vivo, Brassica napus
Method in brief: as §1

soybean = experiment: Test B pre/postemergence soybean; type: in vivo, Glycine max
Method in brief: as §1

sugar beet = experiment: Test B pre/postemergence sugar beet; type: in vivo, Beta vulgaris; conditions: for Plant response rating, Sugarbeets: Rate 250 g/ha
Method in brief: as §1

velvetleaf = experiment: Test B pre/postemergence velvetleaf; type: in vivo, Abutilon theophrasti; conditions: for Plant response rating, Velvetleaf: Rate 250 g/ha
Method in brief: as §1

wheat = experiment: Test B pre/postemergence wheat; type: in vivo, Triticum aestivum; conditions: for Plant response rating, Wheat: Rate 250 g/ha
Method in brief: as §1

wild oat = experiment: Test B pre/postemergence wild oat; type: in vivo, Avena fatua; conditions: for Plant response rating, Wild oats: Rate 250 g/ha
Method in brief: as §1

purple nutsedge = experiment: Test B pre/postemergence purple nutsedge; type: in vivo, Cyperus rotundus
Method in brief: as §1

[1] = Postemergence, Rate 62 g/ha, scale 0 to 10, 0 is no effect, 10 is complete control
[2] = Postemergence, Rate 250 g/ha, scale 0 to 10, 0 no effect, 10 complete control
[3] = Preemergence, Rate 62 g/ha, scale 0 to 10 (0 no effect, 10 complete control)
[4] = Preemergence, Rate 250 g/ha, scale of 0 to 10 where 0 is no effect and 10 is complete control
[5] = Rate 31 g/ha, Postemergence, scale 0 to 10
[6] = Rate 125 g/ha, Postemergence, scale 0 to 10, 0 no effect, 10 complete control
[7] = Postemergence, Rate 125 g/ha, scale of 0 to 10 where 0 is no effect and 10 is complete control
[8] = Preemergence, Rate 31 g/ha, visual rating, scale 0 to 10 (0 no effect, 10 complete control)
[9] = Preemergence, Rate 125 g/ha, scale 0 to 10 (0 no effect, 10 complete control)
[10] = Rate 62 g/ha, Postemergence, scale of 0 to 10 where 0 is no effect and 10 is complete control
[11] = Rate 250 g/ha, Postemergence, scale 0 to 10, 0 is no effect, 10 is complete control
[12] = Preemergence, Rate 125 g/ha, 0 is no effect, 10 is complete control
[13] = Preemergence, scale of 0 to 10 where 0 is no effect and 10 is complete control
[14] = Postemergence, scale 0 to 10, 0 is no effect, 10 is complete control

Cc1onc(-c2ccccc2)c1-n1c(=O)on(C(=O)N(c2ccc(F)cc2)C(C)C)c1=O [Compound 100]
0: Bedstraw plant response rating (bedstraw; [1]) | Bedstraw plant response rating (bedstraw; [2]) | Bedstraw plant response rating (bedstraw; [3]) | Plant response rating, Bedstraw (bedstraw; [4]) | Bedstraw plant response rating (bedstraw; [5]) | Bedstraw plant response rating (bedstraw; [6]) | Blackgrass plant response rating (blackgrass; [7]) | Blackgrass plant response rating (blackgrass; [2]) | Blackgrass plant response rating (blackgrass; [8]) | Blackgrass plant response rating (blackgrass; [3]) | Plant response rating, Blackgrass (blackgrass; [9]) | Plant response rating, Blackgrass (blackgrass; [4]) | Blackgrass plant response rating (blackgrass; [5]) | Blackgrass plant response rating (blackgrass; [10]) | B. signalgrass plant response rating (surinam grass; [1]) | B. signalgrass plant response rating (surinam grass; [2]) | B. signalgrass plant response rating (surinam grass; [8]) | B. signalgrass plant response rating (surinam grass; [3]) | Plant response rating, B. signalgrass (surinam grass; [9]) | Plant response rating, B. signalgrass (surinam grass; [4]) | B. signalgrass plant response rating (surinam grass; [5]) | B. signalgrass plant response rating (surinam grass; [6]) | Cocklebur plant response rating (cocklebur; [7]) | Cocklebur plant response rating (cocklebur; [2]) | Cocklebur plant response rating (cocklebur; [8]) | Cocklebur plant response rating (cocklebur; [3]) | Plant response rating, Cocklebur (cocklebur; [9]) | Plant response rating, Cocklebur (cocklebur; [4]) | Cocklebur plant response rating (cocklebur; [5]) | Cocklebur plant response rating (cocklebur; [10]) | Corn plant response rating (corn; [7]) | Corn plant response rating (corn; [2]) | Corn plant response rating (corn; [8]) | Corn plant response rating (corn; [3]) | Plant response rating, Corn (corn; [9]) | Plant response rating, Corn (corn; [4]) | Corn plant response rating (corn; [5]) | Corn plant response rating (corn; [10]) | Crabgrass plant response rating (crabgrass; [7]) | Crabgrass plant response rating (crabgrass; [2]) | Crabgrass plant response rating (crabgrass; [8]) | Crabgrass plant response rating (crabgrass; [3]) | Plant response rating, Crabgrass (crabgrass; [9]) | Plant response rating, Crabgrass (crabgrass; [4]) | Crabgrass plant response rating (crabgrass; [5]) | Crabgrass plant response rating (crabgrass; [10]) | Giant foxtail plant response rating (giant foxtail; [7]) | Giant foxtail plant response rating (giant foxtail; [2]) | Giant foxtail plant response rating (giant foxtail; [8]) | Giant foxtail plant response rating (giant foxtail; [3]) | Plant response rating, Giant foxtail (giant foxtail; [9]) | Plant response rating, Giant foxtail (giant foxtail; [4]) | Giant foxtail plant response rating (giant foxtail; [5]) | Giant foxtail plant response rating (giant foxtail; [10]) | Morningglory plant response rating (morningglory; [7]) | Morningglory plant response rating (morningglory; [2]) | Morningglory plant response rating (morningglory; [8]) | Morningglory plant response rating (morningglory; [3]) | Plant response rating, Morningglory (morningglory; [9]) | Plant response rating, Morningglory (morningglory; [4]) | Morningglory plant response rating (morningglory; [5]) | Morningglory plant response rating (morningglory; [10]) | Redroot pigweed plant response rating (pigweed; [7]) | Redroot pigweed plant response rating (pigweed; [8]) | Redroot pigweed plant response rating (pigweed; [3]) | Plant response rating, Redroot pigweed (pigweed; [9]) | Plant response rating, Redroot pigweed (pigweed; [4]) | Redroot pigweed plant response rating (pigweed; [5]) | Redroot pigweed plant response rating (pigweed; [10]) | Plant response rating, Redroot pigweed (pigweed; [11]) | Rape plant response rating (rape; [7]) | Rape plant response rating (rape; [2]) | Rape plant response rating (rape; [8]) | Rape plant response rating (rape; [3]) | Plant response rating, Rape (rape; [9]) | Plant response rating, Rape (rape; [4]) | Rape plant response rating (rape; [5]) | Rape plant response rating (rape; [10]) | Soybean plant response rating (soybean; [7]) | Soybean plant response rating (soybean; [8]) | Soybean plant response rating (soybean; [3]) | Plant response rating, Soybean (soybean; [9]) | Plant response rating, Soybean (soybean; [4]) | Soybean plant response rating (soybean; [10]) | Plant response rating, Soybean (soybean; [11]) | Sugarbeets plant response rating (sugar beet; [7]) | Sugarbeets plant response rating (sugar beet; [8]) | Sugarbeets plant response rating (sugar beet; [3]) | Sugarbeets plant response rating (0 to 10 scale) (sugar beet; [12]) | Plant response rating, Sugarbeets (sugar beet; [13]) | Sugarbeets plant response rating (sugar beet; [10]) | Plant response rating, Sugarbeets (sugar beet; [14]) | Velvetleaf plant response rating (velvetleaf; [7]) | Velvetleaf plant response rating (velvetleaf; [8]) | Velvetleaf plant response rating (velvetleaf; [3]) | Velvetleaf plant response rating (0 to 10 scale) (velvetleaf; [12]) | Plant response rating, Velvetleaf (velvetleaf; [13]) | Velvetleaf plant response rating (velvetleaf; [10]) | Plant response rating, Velvetleaf (velvetleaf; [14]) | Wheat plant response rating (wheat; [7]) | Wheat plant response rating (wheat; [8]) | Wheat plant response rating (wheat; [3]) | Wheat plant response rating (0 to 10 scale) (wheat; [12]) | Plant response rating, Wheat (wheat; [13]) | Wheat plant response rating (wheat; [10]) | Plant response rating, Wheat (wheat; [14]) | Wild oats plant response rating (wild oat; [7]) | Wild oats plant response rating (wild oat; [8]) | Wild oats plant response rating (wild oat; [3]) | Wild oats plant response rating (0 to 10 scale) (wild oat; [12]) | Plant response rating, Wild oats (wild oat; [13]) | Wild oats plant response rating (wild oat; [10]) | Plant response rating, Wild oats (wild oat; [14]) | Nutsedge plant response rating (purple nutsedge; [7]) | Nutsedge plant response rating (purple nutsedge; [2]) | Nutsedge plant response rating (purple nutsedge; [8]) | Nutsedge plant response rating (purple nutsedge; [3]) | Plant response rating, Nutsedge (purple nutsedge; [9]) | Plant response rating, Nutsedge (purple nutsedge; [4]) | Nutsedge plant response rating (purple nutsedge; [5]) | Nutsedge plant response rating (purple nutsedge; [10])
